Where “and” joins values, the source holds several entries; their conditions need not be identical. Identical values can stand only once.
Legend:
Wild type yeast = test: Lithium inhibition of yeast growth (OD600), wild type; type: cell-based, S. cerevisiae; conditions: CM/ura−/met−, 24 hr at 30° C.
Method: FIG. 7 is a graph showing met3Δ and met14Δ strains are lithium resistant. Wild type, met3Δ, and met14Δ yeast were resuspended at 5×10^4/ml in CM/ura^− containing 2% dextrose and 1.25 μg/ml methionine. Growth at various concentrations of LiCl was measured after a 24 hr incubation at 30° C. The growth is plotted relative to growth in media lacking lithium.
FIG. 10 is a graph showing methionine supplementation induces lithium resistance. Wild type yeast were inoculated at 5×10^4 cells per ml into synthetic media with or without methionine containing the noted concentration of LiCl. Growth was assayed by spectrophotometry following 48 hrs of growth at 30° C.
Wild type yeast were grown in CM/ura^− containing 2% galactose to mid-log phase. The cultures were washed and resuspended at 5×10^5 cells/ml in CM/ura^−/met^− containing the noted lithium and chlorate concentrations. Following growth for 24 hr at 30° C., the cultures were resuspended, and growth was measured by determining the absorbance at λ=600 nm.
Since methionine effects transcriptional down regulation of the MET3 and MET14 gene products in wild type yeast, the relative lithium sensitivities of the met3Δ and met14Δ strains were assayed in growth media containing reduced methionine (1.25 μg/ml). The use of limited methionine allowed for the comparison of the relative sensitivity to lithium of yeast expressing (wild type) or lacking (met3Δ and met14Δ) PAPS synthetase activities.
The yeast system was used to determine if chlorate could be used to effect a relevant decrease in the accumulation of PAP in the presence of lithium. […] The decrease in PAP accumulation was physiologically relevant since chlorate produced a protective effect in the presence of lithium. […] When 25 mM NaClO3 is included in the culture medium, the growth inhibition is abated, with the IC50 increasing to approximately 80 mM LiCl (FIG. 11)

[1] = tested on: intracellular PAP in wild type yeast; test: Intracellular PAP concentration by GST-PST binding assay, wild type yeast; type: cell-based, S. cerevisiae
Method: (§1) Yeast were grown in CM/ura^− containing 2% galactose to mid-log phase. The cultures were washed extensively and resuspended in the CM/ura^−/met^− media with the noted inclusions. PAP was measured using the ligand binding assay described in Experimental Procedures. Intracellular PAP concentrations were normalized to the amount of soluble protein extracted from the cultures.
For the assay of intracellular PAP concentrations, appropriate yeast strains were grown in CM/ura^− to mid-log phase (OD600=1.0). The cells were centrifuged and washed extensively in sterile water. The cells were resuspended in CM/ura^−/met^− containing methionine (20 μg/ml), lithium, or chlorate as appropriate. The cultures were incubated with shaking at 30° C. At various time points, 2 ml of culture was removed and centrifuged. The cells were washed with 1 ml of water. 250 μl was centrifuged and resuspended in 200 μl K-lysis buffer. 200 μl of glass beads were added, and the cells were disrupted by vigorous bead beating. The amount of soluble protein in this extract was determined using a Bradford dye-binding assay (BioRad, Hercules, Calif., United States of America) with bovine serum albumin as a standard. The remaining 750 μl of washed cells was spun down and resuspended in 250 μl of 2 N HClO4. This was incubated at 4° C. for 20 min, when 250 μl of 1.8 N KOH, 0.4 N KHCO3 were added to neutralize and precipitate the HClO4. The extract was centrifuged at 4° C. to remove the debris, and the supernatant was lyophilized using a rotary evaporator. The dried extracts were frozen at −80° C. for no more than one week prior to use. Extracts were reconstituted in 100 μL of 200 mM HEPES, pH 7.5 and again centrifuged to remove debris. 5′ [^32P] 3′, 5′ PAP was created as described (Spiegelberg, 1999). The GST-PST assay was performed by mixing 10 μL of standard PAP, treated as above, or 10 μL of sample diluted approximately 1:1000 in K-lysis buffer, with 10 μL of radiolabeled PAP (approximately 10,000 CPM). Eighty microliters of a reaction mix containing 100 mM HEPES, pH 7.0, 5 mM DTT, 0.2 mg/ml BSA, and 1 μg of GST-PST were added to start the binding reaction. The reactions were allowed to equilibrate for at least one hour at room temperature. Following incubation, 20 μl of a 50:50 slurry of glutathione sepharose in K-lysis buffer was added. The tubes were incubated with gentle mixing for 10 min at room temperature. The protein with bound PAP was pulled down by centrifugation for 2 min at room temperature. 80 μl of the supernatant, containing free PAP, was removed to a scintillation vial and 200 μl of K-lysis buffer was added to wash the resin. The tubes were centrifuged again and the 200 μl wash was transferred to the original scintillation vials. Radioactivity was determined by adding 5 ml of […] ECONO2™ scintillation fluid (Fisher Scientific, Hampton, N.H., United States of America) and counted in a liquid scintillation counter. The counts were converted to percent isotope bound, and a standard curve was prepared by plotting percent bound vs. the logarithm of the PAP concentration. […]
The GST-PST binding assay was used to determine relative intracellular PAP concentrations in yeast strains grown under various conditions. The PAP concentration determined in the binding assay was normalized to the total soluble protein in parallel extracts, and background was eliminated by reporting only the signal that was sensitive to in vitro degradation by purified recombinant Hal2p. […]

[2] = tested on: intracellular PAP in met14Δ cells; type: cell-based, S. cerevisiae
Method: as §1
(§2) For the assay of intracellular PAP concentrations, appropriate yeast strains were grown in CM/ura^− to mid-log phase (OD600=1.0). The cells were centrifuged and washed extensively in sterile water. The cells were resuspended in CM/ura^−/met^− containing methionine (20 μg/ml), lithium, or chlorate as appropriate. The cultures were incubated with shaking at 30° C. At various time points, 2 ml of culture was removed and centrifuged. The cells were washed with 1 ml of water. 250 μl was centrifuged and resuspended in 200 μl K-lysis buffer. 200 μl of glass beads were added, and the cells were disrupted by vigorous bead beating. The amount of soluble protein in this extract was determined using a Bradford dye-binding assay (BioRad, Hercules, Calif., United States of America) with bovine serum albumin as a standard. The remaining 750 μl of washed cells was spun down and resuspended in 250 μl of 2 N HClO4. This was incubated at 4° C. for 20 min, when 250 μl of 1.8 N KOH, 0.4 N KHCO3 were added to neutralize and precipitate the HClO4. The extract was centrifuged at 4° C. to remove the debris, and the supernatant was lyophilized using a rotary evaporator. The dried extracts were frozen at −80° C. for no more than one week prior to use. Extracts were reconstituted in 100 μL of 200 mM HEPES, pH 7.5 and again centrifuged to remove debris. 5′ [^32P] 3′, 5′ PAP was created as described (Spiegelberg, 1999). The GST-PST assay was performed by mixing 10 μL of standard PAP, treated as above, or 10 μL of sample diluted approximately 1:1000 in K-lysis buffer, with 10 μL of radiolabeled PAP (approximately 10,000 CPM). Eighty microliters of a reaction mix containing 100 mM HEPES, pH 7.0, 5 mM DTT, 0.2 mg/ml BSA, and 1 μg of GST-PST were added to start the binding reaction. The reactions were allowed to equilibrate for at least one hour at room temperature. Following incubation, 20 μl of a 50:50 slurry of glutathione sepharose in K-lysis buffer was added. The tubes were incubated with gentle mixing for 10 min at room temperature. The protein with bound PAP was pulled down by centrifugation for 2 min at room temperature. 80 μl of the supernatant, containing free PAP, was removed to a scintillation vial and 200 μl of K-lysis buffer was added to wash the resin. The tubes were centrifuged again and the 200 μl wash was transferred to the original scintillation vials. Radioactivity was determined by adding 5 ml of […] ECONO2™ scintillation fluid (Fisher Scientific, Hampton, N.H., United States of America) and counted in a liquid scintillation counter. The counts were converted to percent isotope bound, and a standard curve was prepared by plotting percent bound vs. the logarithm of the PAP concentration. This standard curve was used to back-calculate the PAP concentration in the unknown samples.
(§3) The GST-PST binding assay was used to determine relative intracellular PAP concentrations in yeast strains grown under various conditions. The PAP concentration determined in the binding assay was normalized to the total soluble protein in parallel extracts, and background was eliminated by reporting only the signal that was sensitive to in vitro degradation by purified recombinant Hal2p. The assay was characterized further by analyzing the intracellular PAP concentration of wild type yeast grown in the presence of lithium.

[3] = tested on: intracellular PAP in met3Δ cells; type: cell-based, S. cerevisiae
Method: as §1, §2, §3

cultured IMCD cells = test: cAMP production during stimulation of cultured IMCD cells; type: cell-based, mouse; conditions: lithium present
BPntase = conditions: cited from earlier work
[4] = biological target: T1, GST-PST (mouse phenol-preferring sulfotransferase fused to GST) (Mus musculus, UniProt P52840); test: Binding of radiolabeled PAP to GST-PST (Scatchard); conditions: 100 nM purified GST-PST; Scatchard plot
T1 construct: The PST open reading frame was subcloned into the BamHI and NotI sites of pGEX4T-1; made in house; host or cells: bacteria (pGEX4T-1)
T1 sequence (P52840 whole entry, the tested form may be a part): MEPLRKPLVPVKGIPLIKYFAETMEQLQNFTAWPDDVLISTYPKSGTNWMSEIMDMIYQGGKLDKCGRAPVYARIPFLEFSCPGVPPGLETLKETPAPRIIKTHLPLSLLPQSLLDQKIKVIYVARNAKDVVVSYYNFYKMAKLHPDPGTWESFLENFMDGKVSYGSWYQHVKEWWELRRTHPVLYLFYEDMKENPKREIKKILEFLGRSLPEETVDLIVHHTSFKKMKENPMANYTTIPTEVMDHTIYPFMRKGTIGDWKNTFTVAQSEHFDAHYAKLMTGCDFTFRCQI
Method: FIG. 8 is a graph showing binding of PAP to GST-PST. Binding of radiolabeled PAP to 100 nM purified GST-PST was assayed in the presence of various concentrations of unlabeled PAP. […] The data are linear and intersect the y-axis at [Sb]/[Sf]=2.8.
Measurement of intracellular PAP concentrations. A novel isotope binding competition assay was developed to measure intracellular concentrations of PAP. The concentration of PAP in lysates was determined by the binding of radiolabeled PAP to the enzyme phenol (aryl) sulfotransferase (PST), which uses PAP as a cofactor (Yang, 1996b). […] The open reading frame was amplified by PCR using the primers 5′ […] (SEQ ID NO: 15) and 5′ […] (SEQ ID NO: 16) where the underlined sequences correspond to sequence in the PST open reading frame. The PCR product was gel purified and ligated into the pCR2.1 vector. […] The PST open reading frame was subcloned into the BamHI and NotI sites of pGEX4T-1 to create a bacterial expression vector in which PST was expressed in frame downstream of GST (GST-PST). […]
For the assay of intracellular PAP concentrations, appropriate yeast strains were grown in CM/ura^− to mid-log phase (OD600=1.0). […] The amount of soluble protein in this extract was determined using a Bradford dye-binding assay (BioRad, Hercules, Calif., United States of America) with bovine serum albumin as a standard. […]

adenylate cyclase = conditions: preparations of native adenylate cyclase-containing membranes; P-site inhibitor; read-out: IC50 for inhibition of adenylate cyclase; cited from earlier work

## [O-][Cl+2]([O-])O [chlorate]
Wild type yeast
  Effect of chlorate on sensitivity of yeast growth to lithium: reduces sensitivity
[1]; wild type, 100 mM lithium plus 25 mM NaClO3
  Fold PAP accumulation with chlorate: 30.8 fold
[1]; yeast, lithium present
  Effect of chlorate on lithium-dependent PAP accumulation / production: inhibited production of PAP in vivo
[2]; met14Δ expressing hPAPSS2, 100 mM lithium plus 25 mM NaClO3
  Fold PAP accumulation with chlorate: 22.1 fold
[3]; met3Δ expressing hPAPSS2, 100 mM lithium plus 25 mM NaClO3
  Fold PAP accumulation with chlorate: 27.0 fold
Cultured IMCD cells
  Effect of chlorate on accumulation of cAMP: partially restored

## O=P(O)(O)O[C@H]1[C@H](O)[C@@H](O)[C@H](OP(=O)(O)O)[C@@H](O)[C@H]1O [inositol 1,4-bisphosphate]
BPntase; read-out: Ki, competitive inhibition of BPntase
  Ki: 15 µM

## Nc1ncnc2c1ncn2[C@@H]1O[C@H](COP(=O)(O)OS(=O)(=O)O)[C@@H](OP(=O)(O)O)[C@H]1O [3′-phosphoadenosine 5′-phosphosulfate]
BPntase; removal of 3′-phosphate
  Vmax of BPntase substrate: 40 µmol/min/mg
BPntase; removal of 3′-phosphate, read-out: Km of BPntase substrate
  Km: 0.5 µM

## CSCC[C@H](N)C(=O)O [methionine]
[1]; wild type, lithium present, methionine 20 μg/ml in media
  Intracellular PAP concentration with methionine: 2.3 nmol/mg
[2]; met14Δ expressing hPAPSS2 from galactose-inducible vector, lithium present
  Effect of methionine on PAP accumulation: little effect
[3]; met3Δ expressing hPAPSS2 from galactose-inducible vector, lithium present
  Effect of methionine on PAP accumulation: little effect

## Nc1ncnc2c1ncn2[C@@H]1O[C@H](COP(=O)(O)O)[C@@H](OP(=O)(O)O)[C@H]1O [PAP, 3′-phosphoadenosine 5′-phosphate]
[4]
  Kd: ~0.035 µM and 0.0357 µM
Adenylate cyclase
  IC50: ~50 µM
